Experimental data reported in ChEMBL document CHEMBL5291721, “A preclinical secondary pharmacology resource illuminates target-adverse drug reaction associations of marketed drugs” (Nat Commun, 2023).

Tests used:
[1] = molecular target: T1, Muscarinic acetylcholine receptor M2 (Homo sapiens, UniProt P08172); assay type: functional, cell-based
T1 sequence (P08172 whole entry): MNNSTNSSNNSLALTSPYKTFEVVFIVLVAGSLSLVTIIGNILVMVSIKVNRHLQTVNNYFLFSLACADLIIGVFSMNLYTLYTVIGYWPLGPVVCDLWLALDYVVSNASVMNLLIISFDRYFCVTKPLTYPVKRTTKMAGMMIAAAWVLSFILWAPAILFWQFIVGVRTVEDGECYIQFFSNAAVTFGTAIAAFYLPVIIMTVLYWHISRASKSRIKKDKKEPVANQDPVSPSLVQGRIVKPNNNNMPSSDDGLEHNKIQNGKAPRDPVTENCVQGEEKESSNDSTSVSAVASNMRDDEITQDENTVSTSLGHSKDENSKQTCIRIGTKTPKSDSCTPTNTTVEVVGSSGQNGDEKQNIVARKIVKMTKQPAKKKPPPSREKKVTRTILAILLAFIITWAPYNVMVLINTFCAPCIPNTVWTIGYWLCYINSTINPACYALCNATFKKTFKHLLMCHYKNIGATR

Estrogen receptor = molecular target: T2, Estrogen receptor (Homo sapiens, UniProt P03372)
T2 sequence (P03372 whole entry): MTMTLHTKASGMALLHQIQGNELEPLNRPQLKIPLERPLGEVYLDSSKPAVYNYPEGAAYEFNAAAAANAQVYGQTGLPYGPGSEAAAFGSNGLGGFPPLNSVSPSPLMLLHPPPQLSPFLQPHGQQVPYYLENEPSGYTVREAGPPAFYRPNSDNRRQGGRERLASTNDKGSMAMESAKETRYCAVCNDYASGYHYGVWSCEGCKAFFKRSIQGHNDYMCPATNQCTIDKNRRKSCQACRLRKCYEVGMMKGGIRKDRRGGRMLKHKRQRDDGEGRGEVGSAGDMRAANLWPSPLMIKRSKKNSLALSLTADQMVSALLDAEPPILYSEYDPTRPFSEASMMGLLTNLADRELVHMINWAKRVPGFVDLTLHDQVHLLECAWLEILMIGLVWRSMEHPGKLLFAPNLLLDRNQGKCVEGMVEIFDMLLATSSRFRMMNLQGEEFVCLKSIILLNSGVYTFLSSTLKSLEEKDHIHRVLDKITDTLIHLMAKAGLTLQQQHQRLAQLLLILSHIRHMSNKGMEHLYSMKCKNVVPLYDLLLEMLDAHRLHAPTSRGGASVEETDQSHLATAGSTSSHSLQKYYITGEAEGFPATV

[2] = molecular target: T3, Corticotropin-releasing factor receptor 2 (Homo sapiens, UniProt Q13324)
T3 sequence (Q13324 whole entry): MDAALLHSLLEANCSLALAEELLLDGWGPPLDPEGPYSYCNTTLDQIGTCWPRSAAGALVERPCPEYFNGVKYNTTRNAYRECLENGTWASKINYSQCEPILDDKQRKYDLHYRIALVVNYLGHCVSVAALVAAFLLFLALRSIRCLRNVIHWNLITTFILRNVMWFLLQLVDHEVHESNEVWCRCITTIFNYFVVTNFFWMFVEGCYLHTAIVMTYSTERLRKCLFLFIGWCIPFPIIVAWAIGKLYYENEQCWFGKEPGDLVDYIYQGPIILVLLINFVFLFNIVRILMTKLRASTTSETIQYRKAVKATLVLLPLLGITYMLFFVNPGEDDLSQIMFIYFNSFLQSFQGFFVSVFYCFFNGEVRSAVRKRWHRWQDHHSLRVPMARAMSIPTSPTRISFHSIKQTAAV

[3] = molecular target: T4, Alpha-1A adrenergic receptor (Homo sapiens, UniProt P35348)
T4 sequence (P35348 whole entry): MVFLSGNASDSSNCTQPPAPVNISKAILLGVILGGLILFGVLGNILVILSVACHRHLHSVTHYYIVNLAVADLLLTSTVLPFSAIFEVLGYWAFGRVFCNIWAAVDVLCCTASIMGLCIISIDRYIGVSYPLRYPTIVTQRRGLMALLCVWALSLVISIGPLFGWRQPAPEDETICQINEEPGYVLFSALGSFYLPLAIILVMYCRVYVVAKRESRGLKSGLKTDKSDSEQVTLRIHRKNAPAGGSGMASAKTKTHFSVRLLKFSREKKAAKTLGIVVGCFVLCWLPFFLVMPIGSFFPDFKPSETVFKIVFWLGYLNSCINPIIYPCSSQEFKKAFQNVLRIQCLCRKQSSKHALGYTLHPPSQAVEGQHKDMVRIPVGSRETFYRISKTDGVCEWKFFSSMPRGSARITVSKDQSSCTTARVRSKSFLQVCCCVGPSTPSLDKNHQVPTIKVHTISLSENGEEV

[4] = molecular target: T5, Alpha-2B adrenergic receptor (Homo sapiens, UniProt P18089)
T5 sequence (P18089 whole entry): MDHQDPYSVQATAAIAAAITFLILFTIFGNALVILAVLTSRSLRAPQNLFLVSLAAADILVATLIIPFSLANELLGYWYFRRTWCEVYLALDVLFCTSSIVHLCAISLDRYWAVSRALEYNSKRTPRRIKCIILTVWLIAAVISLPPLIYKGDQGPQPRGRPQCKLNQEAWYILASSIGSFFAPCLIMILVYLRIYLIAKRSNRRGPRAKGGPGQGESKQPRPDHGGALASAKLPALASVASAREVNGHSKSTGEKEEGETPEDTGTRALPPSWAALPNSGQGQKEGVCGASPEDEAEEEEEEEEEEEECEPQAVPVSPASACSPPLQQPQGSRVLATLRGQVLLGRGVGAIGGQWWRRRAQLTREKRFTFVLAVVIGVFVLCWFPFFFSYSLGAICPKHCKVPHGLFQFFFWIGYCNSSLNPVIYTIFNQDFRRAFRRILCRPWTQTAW

[5] = molecular target: T4, Alpha-1A adrenergic receptor; remark: listed apart in the source
[6] = molecular target: cGMP-inhibited 3',5'-cyclic phosphodiesterase 3A (Homo sapiens, UniProt Q14432); assay type: functional
cGMP-inhibited 3',5'-cyclic phosphodiesterase 3A, sequence (Q14432 whole entry): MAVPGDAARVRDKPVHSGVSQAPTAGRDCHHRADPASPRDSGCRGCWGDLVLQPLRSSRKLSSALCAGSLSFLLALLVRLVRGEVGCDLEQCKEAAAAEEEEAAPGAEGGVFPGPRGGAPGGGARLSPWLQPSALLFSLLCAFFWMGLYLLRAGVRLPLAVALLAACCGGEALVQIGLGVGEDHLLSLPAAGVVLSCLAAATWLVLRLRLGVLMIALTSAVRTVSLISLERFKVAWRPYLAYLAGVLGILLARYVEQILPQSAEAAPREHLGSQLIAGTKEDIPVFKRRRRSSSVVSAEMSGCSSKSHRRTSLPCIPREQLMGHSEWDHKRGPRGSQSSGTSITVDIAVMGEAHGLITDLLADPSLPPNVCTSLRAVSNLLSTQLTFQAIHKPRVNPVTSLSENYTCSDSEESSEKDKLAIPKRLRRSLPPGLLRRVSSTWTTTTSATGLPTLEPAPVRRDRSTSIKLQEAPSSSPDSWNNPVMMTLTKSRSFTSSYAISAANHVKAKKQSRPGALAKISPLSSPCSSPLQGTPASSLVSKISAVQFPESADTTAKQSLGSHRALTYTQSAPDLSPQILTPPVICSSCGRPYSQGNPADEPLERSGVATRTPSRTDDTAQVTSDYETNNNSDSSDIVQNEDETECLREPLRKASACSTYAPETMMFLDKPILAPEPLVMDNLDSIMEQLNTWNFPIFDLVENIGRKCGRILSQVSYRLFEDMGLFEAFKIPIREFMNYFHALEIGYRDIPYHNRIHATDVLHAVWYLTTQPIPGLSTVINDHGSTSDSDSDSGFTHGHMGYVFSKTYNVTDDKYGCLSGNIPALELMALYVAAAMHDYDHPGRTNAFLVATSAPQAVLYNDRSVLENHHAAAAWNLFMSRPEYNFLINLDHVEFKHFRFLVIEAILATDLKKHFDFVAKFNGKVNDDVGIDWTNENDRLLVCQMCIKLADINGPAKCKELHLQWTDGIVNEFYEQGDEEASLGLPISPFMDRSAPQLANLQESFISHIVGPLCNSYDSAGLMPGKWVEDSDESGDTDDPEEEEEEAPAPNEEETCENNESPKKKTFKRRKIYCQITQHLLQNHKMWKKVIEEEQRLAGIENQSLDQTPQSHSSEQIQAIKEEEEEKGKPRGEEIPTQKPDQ
Further: assay procedure not described here.

SMILES	AC50 [1] [µM]	AC50 (Estrogen receptor) [µM]	AC50 [2] [µM]	AC50 [3] [µM]	AC50 [4] [µM]	AC50 [5] [µM]	AC50 [6] [µM]
CCCc1nc2c(C)cc(-c3nc4ccccc4n3C)cc2n1Cc1ccc(-c2ccccc2C(=O)O)cc1	> 30	> 30	> 30	> 10	> 30	> 10	> 30
O=C(O)Cc1ccccc1Oc1ccc(Cl)cc1Cl [FENCLOFENAC]	> 10	> 30	> 30	> 10	> 10	> 10	> 30
CC(C)[C@H](N)C(=O)OCCOCn1cnc2c(=O)[nH]c(N)nc21 [VALACYCLOVIR]	> 10	> 30	> 30	> 10	–	> 10	> 30
O=C1Cc2cc(CCN3CCN(c4nsc5ccccc45)CC3)c(Cl)cc2N1 [ZIPRASIDONE]	> 10	> 30	> 30	0.0275	–	0.0317	> 30
